According to patent publication US7163928B2 (CV Therapeutics, Inc., priority 2003, dated 2007):
“And” between values parts separate entries of the source, which are not always exact repeats. Identical values can stand only once.

System: not given
Test: not given
Conditions: cited from earlier work

Compound | half-life
Nc1ncnc2c1ncn2[C@@H]1O[C@H](CO)[C@@H](O)[C@H]1O [adenosine, Adenosine] | less than 10 sec

Target: T1, A1 adenosine receptor (Mesocricetus auratus, UniProt A0A1U8BVR4)
T1 construct: A1 adenosine receptor sites on the membranes of DDT cells; endogenous in cells; host or cells: DDT1 cells (hamster vas deferens smooth muscle cell line), membrane preparation
T1 sequence (A0A1U8BVR4 1-326): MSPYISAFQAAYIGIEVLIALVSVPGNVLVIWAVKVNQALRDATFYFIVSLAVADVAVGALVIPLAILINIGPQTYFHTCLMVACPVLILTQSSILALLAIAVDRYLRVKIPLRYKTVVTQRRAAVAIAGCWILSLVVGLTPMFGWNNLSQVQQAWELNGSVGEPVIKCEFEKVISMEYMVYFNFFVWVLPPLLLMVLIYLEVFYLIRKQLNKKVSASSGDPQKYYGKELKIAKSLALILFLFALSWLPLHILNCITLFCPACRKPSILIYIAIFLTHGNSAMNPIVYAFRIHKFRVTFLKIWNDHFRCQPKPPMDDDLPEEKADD
Test: Competitive binding assay, DDT cell membranes, 3H-CPX
Parameters: species or system hamster
Conditions: 1.5 nM 3H-CPX, 10 μM GTP-γS, 23° C. 90 minutes, read-out: Ki (low)
Protocol: DDT cells (hamster vas deferens smooth muscle cell line) were grown as monolayers in petri dishes using Dulbecco's Modified Eagle's Medium (DMEM) containing 2.5 μg mL^−1 amphotericin B, 100 U mL^−1 penicillin G, 0.1 mg mL^−1 streptomycin sulfate and 5% fetal bovine serum in a humidified atmosphere of 95% air and 5% CO2. Cells were subcultured twice weekly by dispersion in Hank's Balanced Salt Solution (HBSS) without the divalent cations and containing 1 mM EDTA. The cells were then seeded in growth medium at a density of 1.2×10^5 cells per plate and experiments were performed 4 days later at approximately one day preconfluence.
Attached cells were washed twice with HBSS (2×10 mL), scraped free of the plate with the aid of a rubber policeman in 5 mL of 50 mM Tris-HCl buffer pH 7.4 at 4° C. and the suspension homogenized for 10 s. The suspension was then centrifuged at 27,000×g for 10 min. The pellet was resuspended in homogenization buffer by vortexing and centrifuged as described above. The final pellet was resuspended in 1 vol of 50 mM Tris-HCl buffer pH 7.4 containing 5 mM MgCl2 for A1 adenosine receptor assays. For the [^35S]GTPγS binding assay the final pellet was resuspended in 50 mM Tris-HCl pH 7.4 containing 5 mM MgCl2, 100 mM NaCl and 1 mM dithiothreitol. This membrane suspension was then placed in liquid nitrogen for 10 min, thawed and used for assays. The protein content was determined with a Bradford™ Assay Kit using bovine serum albumin as standard.
Compounds of Formula I were assayed to determine their affinity for the A1 adenosine receptor sites on the membranes of DDT cells. Briefly, 50–70 ug of membrane protein were incubated in a mixture containing 2 U/ml adenosine deaminase, 10 μM GTP-γS in 5 mM HE buffer containing 5 mM MgCl2 in glass tubes Stock solutions of the compounds of the invention were serially diluted (10^−10M to 10^−4M) in HE buffer or HE buffer alone (to determine total binding) and added to the incubation mixture. Finally, tritiated […] (^3H-CPX) was added to a final concentration of 1.5 nM. After incubation at 23° C. 90 minutes, the reaction was stopped by filtration on a Brandel MR24 cell harvester and washing with ice-cold Tris-EDTA buffer (three times, approximate volume 10 ml/wash) over Whatman GF/B filters (presoaked for 1 h in 0.3% polyethylenimine to reduce non-specific binding). Filters were transferred to scintillation vials and 5 ml of Scintisafe (VWR, Brisbane, Calif.) was added. The amount of radioactivity retained on the filters was determined by liquid scintillation spectrometry. Protein determinations were by the method of Bradford (1976. Anal. Biochem. 72:248) using bovine serum albumin as the standard.

Ki | Compound
> 5 µM | OC[C@@H]1C[C@@H](O)[C@H](n2cnc3c(N[C@H]4CC[C@H](O)CC4)ncnc32)O1
> 5 µM | 1-[(3R)-3-({9-[(5S,2R,3R)-3-hydroxy-5-(hydroxymethyl)oxolan-2-yl]purin-6-yl}amino)pyrrolidinyl]-2-methylpropan-1-one [CVT 4614]
> 5 µM | 4-{[(3R)-3-({9-[(5S,2R,3R)-3-hydroxy-5-(hydroxymethyl)oxolan-2-yl]purin-6-yl}amino)pyrrolidinyl]carbonyl}benzenecarbonitrile [CVT 4608]
1 µM | OC[C@@H]1C[C@@H](O)[C@H](n2cnc3c(N[C@@H]4CCOC4)ncnc32)O1 [CVT 3454, 2-{6-[((3R)oxolan-3-yl)amino]purin-9-yl}(5S,2R,3R)-5-(hydroxymethyl)oxolan-3-ol]
> 5 µM | CC(=O)N1CC[C@@H](Nc2ncnc3c2ncn3[C@@H]2O[C@H](CO)C[C@H]2O)C1 [CVT 4617, (3R)-3-({9-[(5S,2R,3R)-3-hydroxy-5-(hydroxymethyl)oxolan-2-yl]purin-6-yl}amino)-1-acetylpyrrolidine]
4.44 µM and 2.94 µM | OC[C@@H]1C[C@@H](O)[C@H](n2cnc3c(N[C@@H]4CCCCC4O)ncnc32)O1 (stereo partly drawn) [CVT 4622, 2-{6-[((1R)-2-hydroxycyclohexyl)amino]purin-9-yl}(5S,2R,3R)-5-(hydroxymethyl)oxolan-3-ol]
4.09 µM and 3.69 µM | OC[C@@H]1C[C@@H](O)[C@H](n2cnc3c(N[C@H]4CCC[C@@H]4O)ncnc32)O1 [CVT 4625, (5S,2R,3R)-2-{6-[((1S,2S)-2-hydroxycyclopentyl)amino]purin-9-yl}-5-(hydroxymethyl)oxolan-3-ol]
4.01 µM and 3.5 µM | OC[C@@H]1C[C@@H](O)[C@H](n2cnc3c(N[C@@H]4CCCC4O)nc(Cl)nc32)O1 (stereo partly drawn) [CVT 4626, 2-{6-[((1R)-2-hydroxycyclopentyl)amino]-2-chloropurin-9-yl}(5S,2R,3R)-5-(hydroxymethyl)oxolan-3-ol]
> 5 µM | O=S(=O)(c1ccccc1)N1CC[C@@H](Nc2ncnc3c2ncn3[C@@H]2O[C@H](CO)C[C@H]2O)C1 [CVT 4629, (3R)-3-({9-[(5S,2R,3R)-3-hydroxy-5-(hydroxymethyl)oxolan-2-yl]purin-6-yl}amino)-1-(phenylsulfonyl)pyrrolidine]
2.84 µM | (3R)-3-({9-[(5S,2R,3R)-3-hydroxy-5-(hydroxymethyl)oxolan-2-yl]purin-6-yl}amino)pyrrolidinyl 2-fluorophenyl ketone [CVT 4606]
> 5 µM | (3R)-3-({9-[(5S,2R,3R)-3-hydroxy-5-(hydroxymethyl)oxolan-2-yl]purin-6-yl}amino)pyrrolidinyl 2-naphthyl ketone [CVT 4612]
> 5 µM | (3R)-3-({9-[(5S,2R,3R)-3-hydroxy-5-(hydroxymethyl)oxolan-2-yl]purin-6-yl}amino)pyrrolidinyl 3-fluorophenyl ketone [CVT 4613]
> 5 µM | (3R)-3-({9-[(5S,2R,3R)-3-hydroxy-5-(hydroxymethyl)oxolan-2-yl]purin-6-yl}amino)pyrrolidinyl 4-(trifluoromethyl)phenyl ketone [CVT 4610]
> 5 µM | (3R)-3-({9-[(5S,2R,3R)-3-hydroxy-5-(hydroxymethyl)oxolan-2-yl]purin-6-yl}amino)pyrrolidinyl 4-ethylphenyl ketone [CVT 4611]
> 5 µM | (3R)-3-({9-[(5S,2R,3R)-3-hydroxy-5-(hydroxymethyl)oxolan-2-yl]purin-6-yl}amino)pyrrolidinyl 4-fluorophenyl ketone [CVT 4607]
> 5 µM | (3R)-3-({9-[(5S,2R,3R)-3-hydroxy-5-(hydroxymethyl)oxolan-2-yl]purin-6-yl}amino)pyrrolidinyl 4-methoxyphenyl ketone [CVT 4609]
1.91 µM and 2.56 µM | (3R)-3-({9-[(5S,2R,3R)-3-hydroxy-5-(hydroxymethyl)oxolan-2-yl]purin-6-yl}amino)pyrrolidinyl naphthyl ketone [CVT 4627]
